In patent US20230200390A1, “SELECTIVE HERBICIDES BASED ON SUBSTITUTED ISOXAZOLIN CARBOXAMIDES AND MEFENPYR-DIETHYL” (BAYER AKTIENGESELLSCHAFT, priority 2020, published 2023):

Columns and labels:
Format in all cases: in vivo
[1] = test system: spring barley, HORVS Montoya; test: Tank-mix; post-emergence: crop damage by herbicide with/without safener mefenpyr-diethyl; conditions: 21 DAT
Method in brief: (§1)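 Greenhouse-grown spring wheat and barley treated post-emergence at 1–3-leaf stage with herbicide alone or tank-mixed with safener, sprayed at various dosages in 300 l/ha water. Crop injury scored visually 1–3 weeks after treatment as % vs untreated (0 none, 100 complete kill).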

[2] = test system: spring wheat, TRZAS Triso; test: as above; conditions: 21 DAT
Method in brief: as §1

[3] = test system: spring barley, HORVS Montoya; test: Seed treatment with safener; pre-emergence herbicide, crop damage; conditions: for HER effect + SAF / Reduction [%] / Reduction [Difference]: mefenpyr-diethyl 0.25 g a.i./kg seed
Method: (§2) For the safener seed treatment, sufficient seeds of the respective crops (spring wheat, TRZAS; spring barley, HORVS; maize, ZEAMA) were weighed into screw top glass bottles approximately twice the volume of the seeds.
(§3) The specified safeners, formulated as wettable powder (WP) were weighed out so that the specified rates (g a.i./kg seed) would be obtained, dissolved in water (1 ml water per 10 g of seeds), and added to the seeds to produce a slurry.
(§4) The bottles were capped and then placed in an overhead shaker (set at medium speed for ca. 60 minutes) so that the seeds were evenly coated with the slurry. The bottles were uncapped and the seeds were either placed on paper and dried for an interval of 3-4 hours prior to sowing, or directly sown. Seeds were placed in sandy loam soil in pots of a diameter of 7-8 cm, and covered with soil.
(§5) Pre-emergence application of the specified herbicides was done subsequently, on two sets of plants:
(§6) a) seed treatment with safener, as described above
(§7) The herbicides were formulated as WP and was sprayed onto the soil surface as an aqueous suspension at an equivalent water application rate of 300 l/ha.
(§8) After application, the test plants were kept in the greenhouse under good growth conditions. At intervals up to 4 weeks after application (=28 days after treatment; DAT), % crop damage observed on the treated plants was scored visually in comparison to control plants that had not received any safener or herbicide treatment.
(§9) Values in the table below are mean values of at least 2 replicates.

[4] = test system: spring wheat, TRZAS Triso; test: as above; conditions: for HER effect + SAF / Reduction [%] / Reduction [Difference]: mefenpyr-diethyl 0.25 g a.i./kg seed
Method: as §2, §3, §4, §5, §6, §7, §8, §9

[5] = test system: spring barley, HORVS Montoya; test: Seed treatment with safener; post-emergence herbicide, crop damage; conditions: 21 DAT; for HER effect + SAF / Reduction [%] / Reduction [Difference]: mefenpyr-diethyl 0.5 g a.i./kg seed
Method in brief: (§10)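 Wheat and barley seeds were coated with safener (g a.i./kg seed) in a slurry prediluted with milk, then sown and grown to BBCH 12. WP herbicides with 1 l/ha MERO in 300 l/ha water were sprayed post-emergence, with untreated-seed plants as reference. Crop damage (%) was scored visually at 10 and 21 DAT.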

[6] = test system: spring wheat, TRZAS Triso; test: as above; conditions: 21 DAT; for HER effect + SAF [%] (crop damage) / Reduction [%] / Reduction [Difference]: mefenpyr-diethyl 0.5 g a.i./kg seed; for HER effect [%] (crop damage, herbicide without safener): no safener
Method in brief: as §10

[7] = HER 0.5 g a.i./ha + mefenpyr-diethyl 50 g a.i./ha
[8] = HER 2 g a.i./ha + mefenpyr-diethyl 100 g a.i./ha
[9] = HER 1 g a.i./ha + mefenpyr-diethyl 50 g a.i./ha
[10] = HER 4 g a.i./ha + mefenpyr-diethyl 100 g a.i./ha
[11] = HER 5 g a.i./ha pre-emergence, 11 DAT (Interim)
[12] = HER 5 g a.i./ha pre-emergence, 21 DAT (Final)
[13] = HER 15 g a.i./ha pre-emergence, 11 DAT (Interim)
[14] = HER 15 g a.i./ha pre-emergence, 21 DAT (Final)
[15] = herbicide alone 5 g a.i./ha pre-emergence, 11 DAT (Interim)
[16] = herbicide alone 5 g a.i./ha pre-emergence, 21 DAT (Final)
[17] = herbicide alone 15 g a.i./ha pre-emergence, 11 DAT (Interim)
[18] = herbicide alone 15 g a.i./ha pre-emergence, 21 DAT (Final)
[19] = HER 0.5 g a.i./ha post-emergence

`C=CC1(C(=O)NC2COC(C(=O)OC)C2)CC(c2cc(F)cc(F)c2)=NO1` (mixture of isomers) [Example 1.68] was tested, and the “HER effect + SAF” value [1, 7] was 0%, the “Reduction [%]” value [1, 7] was 100% and the “Reduction [Difference]” value [1, 7] was 30. The “HER effect + SAF” value [1, 8] was 10%, the “Reduction [%]” value [1, 8] was 75% and the “Reduction [Difference]” value [1, 8] was 30. For the same compound, the HER effect ([1]; herbicide alone 0.5 g a.i./ha) was 30%, the HER effect ([1]; herbicide alone 2 g a.i./ha) was 40% and the “HER effect + SAF” value [2, 9] was 30%. The “Reduction [%]” value [2, 9] was 63%, the “Reduction [Difference]” value [2, 9] was 50 and the “HER effect + SAF” value [2, 10] was 60%. For the same compound, the “Reduction [%]” value [2, 10] was 29%, the “Reduction [Difference]” value [2, 10] was 25 and the HER effect ([2]; herbicide alone 1 g a.i./ha) was 80%. The HER effect ([2]; herbicide alone 4 g a.i./ha) was 85%, the “HER effect + SAF” value [3, 11] was 5% and the “Reduction [%]” value [3, 11] was 80%. The “Reduction [Difference]” value [3, 11] was 20, the “HER effect + SAF” value [3, 12] was 5% and the “Reduction [%]” value [3, 12] was 83%. The “Reduction [Difference]” value [3, 12] was 25, the “HER effect + SAF” value [3, 13] was 0% and the “Reduction [%]” value [3, 13] was 100%. The “Reduction [Difference]” value [3, 13] was 65, the “HER effect + SAF” value [3, 14] was 60% and the “Reduction [%]” value [3, 14] was 25%. The “Reduction [Difference]” value [3, 14] was 20, the HER effect [3, 15] was 25% and the HER effect [3, 16] was 30%. The HER effect [3, 17] was 65%, the HER effect [3, 18] was 80% and the “HER effect + SAF” value [4, 11] was 15%. The “Reduction [%]” value [4, 11] was 67%, the “Reduction [Difference]” value [4, 11] was 30 and the “HER effect + SAF” value [4, 12] was 5%. The “Reduction [%]” value [4, 12] was 89%, the “Reduction [Difference]” value [4, 12] was 40 and the “HER effect + SAF” value [4, 13] was 30%. For the same compound, the “Reduction [%]” value [4, 13] was 63%, the “Reduction [Difference]” value [4, 13] was 50 and the “HER effect + SAF” value [4, 14] was 30%. For the same compound, the “Reduction [%]” value [4, 14] was 65%, the “Reduction [Difference]” value [4, 14] was 55 and the HER effect [4, 15] was 45%. For the same compound, the HER effect [4, 16] was 45%, the HER effect [4, 17] was 80% and the HER effect [4, 18] was 85%. The “HER effect + SAF” value [5, 19] was 0%, the “Reduction [%]” value [5, 19] was 100% and the “Reduction [Difference]” value [5, 19] was 30. For the same compound, the “HER effect + SAF” value ([5]; HER 2 g a.i./ha post-emergence) was 0%, the “Reduction [%]” value ([5]; HER 2 g a.i./ha post-emergence) was 100% and the “Reduction [Difference]” value ([5]; HER 2 g a.i./ha post-emergence) was 40. The HER effect ([5]; herbicide alone 0.5 g a.i./ha post-emergence) was 30%, the HER effect ([5]; herbicide alone 2 g a.i./ha post-emergence) was 40% and the “HER effect + SAF [%] (crop damage)” value ([6]; HER dose 1 g a.i./ha) was 20%. For the same compound, the “Reduction [%]” value ([6]; HER dose 1 g a.i./ha) was 75%, the “Reduction [Difference]” value ([6]; HER dose 1 g a.i./ha) was 60 and the “HER effect [%] (crop damage, herbicide without safener)” value ([6]; HER dose 1 g a.i./ha) was 80%. For the same compound, the “HER effect + SAF [%] (crop damage)” value ([6]; HER dose 4 g a.i./ha) was 30%, the “Reduction [%]” value ([6]; HER dose 4 g a.i./ha) was 65% and the “Reduction [Difference]” value ([6]; HER dose 4 g a.i./ha) was 55. For the same compound, the “HER effect [%] (crop damage, herbicide without safener)” value ([6]; HER dose 4 g a.i./ha) was 85%.
